# Values quoted from earlier work as cited in PMC12169662, “De Novo-Designed APC/C Inhibitors Provide a Rationale for Targeting RING-Type E3 Ubiquitin Ligases” (Journal of Medicinal Chemistry, 2025).
# Biological target: APC/C
# Conditions: determined by the same methodology; ref not given; read-out: K i of apcin; cited from earlier work
# Procedure: To quantify the inhibitory effectiveness of H6, its IC50 was determined. To this end, we performed in vitro APC/C ubiquitination assays in the presence of H6 titrated from 0.01 to 100 μM (Figure S17B). […] To distinguish between competitive and noncompetitive inhibition, we determin ...
structure (smiles),measurement,value
Cc1ncc([N+](=O)[O-])n1CCOC(=O)NC(Nc1ncccn1)C(Cl)(Cl)Cl (stereo not shown) [apcin],Ki,23 µM
